From US20150133664A1, “CHEMICAL TRANS[…] (-)-CODEINE TO AFFORD DERIVATIVES OF CODEINE AND MORPHINE THEREOF” (BOARD OF REGENTS, THE UNIVERSITY OF TEXAS SYSTEM, priority 2012, published 2015)

Experiment: potency compared with codeine and morphine (test not described)
Conditions: no assay, value or method printed

COc1ccc2c3c1O[C@H]1C(O)[C@H](C)C[C@H]4[C@@H](C2)N(C)CC[C@]314 (stereo partly drawn) [Compound 8, 7β-Methyl-7,8-dihydrocodeine]
potency compared with codeine (compared with codeine): increased potency

C[C@@H]1C[C@H]2[C@H]3Cc4ccc(O)c5c4[C@@]2(CCN3C)[C@@H](O5)C1O (stereo partly drawn) [Compound 9, 7β-Methyl-7,8-dihydromorphine]
potency compared with morphine (compared with morphine): increased potency
